Data on 27 compounds can be found in patent US20140329797A1, “SUBSTITUTED OXADIAZOLYL PYRIDINONES AND OXADIAZOLYL PYRIDAZINONES AS HIF INHIBITORS” (Bayer Intellectual Property GmbH, priority 2011, published 2014).

The structures appear in SMILES notation.

This assay deals with HCT 116 cells transfected with a luciferase reporter under the control of an HIF-responsive sequence. Description: HIF-luciferase assay. As to conditions: Homo sapiens; HCT 116 HIF-luciferase reporter cells, hypoxia chamber (1% O2), 24 h; in some cases means of up to four individual determinations. The assay is classed as cell-based. The method, then: B-1. HIF-Luciferase Assay
HCT 116 cells were transfected in a stable manner with a plasmid which contained a luciferase reporter under the control of an HIF-responsive sequence. These cells were sown in microtitre plates [20000 cells/cavity in RPMI 1640 medium with 10% foetal calf serum (FCS) and 100 μg/ml of hygromycin]. Incubation was carried out overnight under standard conditions (5% CO2, 21% O2, 37° C., moistened). The following morning the cells were incubated with various concentrations of the test substances (0-10 μmol/l) in a hypoxia chamber (1% O2). After 24 h, Bright Glo reagent (Promega, Wisconsin, USA) was added in accordance with the manufacturer's instructions, and after 5 min the luminescence was measured. Cells which were incubated under normoxia served as background controls.
(In a reporter assay the amount or activity of a reporter protein is the signal.)

One may read the IC50 as the concentration that gives 50% inhibition. The low end stands for inhibition by little substance, the high end for a need for much substance. The compound `CC(=O)N1CCN(c2cc(Cn3cc(-c4nc(-c5ccc(SC(F)(F)F)cc5)no4)ccc3=O)ccn2)CC1` [Example 55, 1-{[2-(4-Acetylpiperazin-1-yl)pyridin-4-yl]methyl}-5-(3-{4-[(trifluoromethyl)sulphanyl]phenyl}-1,2,4-oxadiazol-5-yl)pyridin-2(1H)-one] registered an IC50 of 0.02 µM.

Regarding `CNc1ccc(Cn2cc(-c3nc(-c4ccc(OC(F)(F)F)cc4)no3)ccc2=O)cn1` [Example 59, 1-{[6-(Methylamino)pyridin-3-yl]methyl}-5-{3-[4-(trifluoromethoxy)phenyl]-1,2,4-oxadiazol-5-yl}pyridin-2(1H)-one], inhibition was half-maximal at 0.0125 µM (IC50). Consider `CNc1ccc(Cn2cc(-c3nc(-c4ccc(C(C)(C)C(F)(F)F)cc4)no3)ccc2=O)cn1` [Example 60, 1-{[6-(Methylamino)pyridin-3-yl]methyl}-5-{3-[4-(1,1,1-trifluoro-2-methylpropan-2-yl)phenyl]-1,2,4-oxadiazol-5-yl}pyridin-2(1H)-one], for which the IC50 was found to be 0.02 µM. On to `O=c1ccc(-c2nc(-c3ccc(OC(F)(F)F)cc3)no2)cn1Cc1ccc(NCCCO)nc1` [Example 63, 1-({6-[(3-Hydroxypropyl)amino]pyridin-3-yl}methyl)-5-{3-[4-(trifluoromethoxy)phenyl]-1,2,4-oxadiazol-5-yl}pyridin-2(1H)-one], for which the IC50 was found to be 0.03 µM. To `Cc1ccc(Cn2nc(-c3nc(-c4ccc(OC(F)(F)F)cc4)no3)ccc2=O)cc1` [Example 65, 2-(4-Methylbenzyl)-6-{3-[4-(trifluoromethoxy)phenyl]-1,2,4-oxadiazol-5-yl}pyridazin-3(2H)-one] belongs 0.2 µM. On to `N#CC1CCN(c2cccc(Cn3nc(-c4nc(-c5ccc(OC(F)(F)F)cc5)no4)ccc3=O)c2)CC1` [Example 66, 1-(3-{[6-oxo-3-{3-[4-(trifluoromethoxy)phenyl]-1,2,4-oxadiazol-5-yl}pyridazin-1(6H)-yl]methyl}phenyl)piperidine-4-carbonitrile], for which inhibition was half-maximal at 0.0015 µM (IC50). For the compound `CNC(=O)c1cccc(Cn2nc(-c3nc(-c4ccc(C(C)(C)C(F)(F)F)cc4)no3)ccc2=O)c1` [Example 70, N-Methyl-3-{[6-oxo-3-{3-[4-(1,1,1-trifluoro-2-methylpropan-2-yl)phenyl]-1,2,4-oxadiazol-5-yl}pyridazin-1(6H)-yl]methyl}benzamide], half-maximal inhibition (IC50) required 0.06 µM. For `CC(C)(c1ccc(-c2noc(-c3ccc(=O)n(Cc4cccc(C(=O)NCCCO)c4)n3)n2)cc1)C(F)(F)F` [Example 73, N-(3-Hydroxypropyl)-3-{[6-oxo-3-{3-[4-(1,1,1-trifluoro-2-methylpropan-2-yl)phenyl]-1,2,4-oxadiazol-5-yl}pyridazin-1(6H)-yl]methyl}benzamide], the IC50 came out at 0.05 µM. `O=C(c1cccc(Cn2nc(-c3nc(-c4ccc(OC(F)(F)F)cc4)no3)ccc2=O)c1)N1CCC1` [Example 74, 2-[3-(Azetidin-1-ylcarbonyl)benzyl]-6-{3-[4-(trifluoromethoxy)phenyl]-1,2,4-oxadiazol-5-yl}pyridazin-3(2H)-one] returned an IC50 of 0.01 µM.

The compound `O=C(c1cccc(Cn2nc(-c3nc(-c4ccc(OC(F)(F)F)cc4)no3)ccc2=O)c1)N1CC(O)C1` [Example 76, 2-{3-[(3-Hydroxyazetidin-1-yl)carbonyl]benzyl}-6-{3-[4-(trifluoromethoxy)phenyl]-1,2,4-oxadiazol-5-yl}pyridazin-3(2H)-one] registered an IC50 of 0.02 µM.

`O=C(c1cccc(Cn2nc(-c3nc(-c4ccc(OC(F)(F)F)cc4)no3)ccc2=O)c1)N1CCCC1` [Example 78, 2-[3-(Pyrrolidin-1-ylcarbonyl)benzyl]-6-{3-[4-(trifluoromethoxy)phenyl]-1,2,4-oxadiazol-5-yl}pyridazin-3(2H)-one] came in with an IC50 of 0.005 µM. To `O=C(c1cccc(Cn2nc(-c3nc(-c4ccc(OC(F)(F)F)cc4)no3)ccc2=O)c1)N1CCCO1` [Example 80, 2-[3-(1,2-Oxazolidin-2-ylcarbonyl)benzyl]-6-{3-[4-(trifluoromethoxy)phenyl]-1,2,4-oxadiazol-5-yl}pyridazin-3(2H)-one] belongs 0.005 µM. Consider `O=C(c1cccc(Cn2nc(-c3nc(-c4ccc(OC(F)(F)F)cc4)no3)ccc2=O)c1)N1CCC(O)CC1` [Example 82, 2-{3-[(4-Hydroxypiperidin-1-yl)carbonyl]benzyl}-6-{3-[4-(trifluoromethoxy)phenyl]-1,2,4-oxadiazol-5-yl}pyridazin-3(2H)-one], for which 0.015 µM corresponded to half-maximal inhibition (IC50). With `O=C(c1cccc(Cn2nc(-c3nc(-c4ccc(OC(F)(F)F)cc4)no3)ccc2=O)c1)N1CCOCC1` [Example 84, 2-[3-(Morpholin-4-ylcarbonyl)benzyl]-6-{3-[4-(trifluoromethoxy)phenyl]-1,2,4-oxadiazol-5-yl}pyridazin-3(2H)-one] the figure was 0.02 µM.

With `CN1CCN(C(=O)c2cccc(Cn3nc(-c4nc(-c5ccc(C(C)(C)C(F)(F)F)cc5)no4)ccc3=O)c2)CC1` [Example 86, 2-{3-[(4-Methylpiperazin-1-yl)carbonyl]benzyl}-6-{3-[4-(1,1,1-trifluoro-2-methylpropan-2-yl)phenyl]-1,2,4-oxadiazol-5-yl}pyridazin-3(2H)-one], 0.04 µM corresponded to half-maximal inhibition (IC50).

Consider `O=C(c1cccc(Cn2nc(-c3nc(-c4ccc(OC(F)(F)F)cc4)no3)ccc2=O)c1)N1CCN(C2CC2)CC1` [Example 87, 2-{3-[(4-Cyclopropylpiperazin-1-yl)carbonyl]benzyl}-6-{3-[4-(trifluoromethoxy)phenyl]-1,2,4-oxadiazol-5-yl}pyridazin-3(2H)-one], for which the IC50 came out at 0.005 µM. `CC(=O)OC1(c2cccc(Cn3nc(-c4nc(-c5ccc(OC(F)(F)F)cc5)no4)ccc3=O)c2)CC1` [Example 89, 1-(3-{[6-oxo-3-{3-[4-(trifluoromethoxy)phenyl]-1,2,4-oxadiazol-5-yl}pyridazin-1(6H)-yl]methyl}phenyl)cyclopropyl acetate] gave an IC50 of 0.005 µM. With `CC(C)(O)Cc1cccc(Cn2nc(-c3nc(-c4ccc(OC(F)(F)F)cc4)no3)ccc2=O)c1` [Example 90, 2-[3-(2-Hydroxy-2-methylpropyl)benzyl]-6-{3-[4-(trifluoromethoxy)phenyl]-1,2,4-oxadiazol-5-yl}pyridazin-3(2H)-one] the figure was 0.006 µM; with `CC(C)(O)Cc1cccc(Cn2nc(-c3nc(-c4ccc(C(C)(C)C(F)(F)F)cc4)no3)ccc2=O)c1` [Example 91, 2-[3-(2-Hydroxy-2-methylpropyl)benzyl]-6-{3-[4-(1,1,1-trifluoro-2-methylpropan-2-yl)phenyl]-1,2,4-oxadiazol-5-yl}pyridazin-3(2H)-one], 0.04 µM.

As for `O=c1ccc(-c2nc(-c3ccc(OC(F)(F)F)cc3)no2)nn1Cc1cccc(C2(CO)CC2)c1` [Example 92, 2-{3-[1-(Hydroxymethyl)cyclopropyl]benzyl}-6-{3-[4-(trifluoromethoxy)phenyl]-1,2,4-oxadiazol-5-yl}pyridazin-3(2H)-one], the half-inhibitory concentration (IC50) came out at 0.01 µM. For the compound `CC(C)(c1ccc(-c2noc(-c3ccc(=O)n(Cc4cccc(C5(CO)CC5)c4)n3)n2)cc1)C(F)(F)F` [Example 93, 2-{3-[1-(Hydroxymethyl)cyclopropyl]benzyl}-6-{3-[4-(1,1,1-trifluoro-2-methylpropan-2-yl)phenyl]-1,2,4-oxadiazol-5-yl}pyridazin-3(2H)-one], the IC50 stood at 0.025 µM.

In turn, `N#CC1CCN(c2cc(Cn3nc(-c4nc(-c5ccc(OC(F)(F)F)cc5)no4)ccc3=O)ccn2)CC1` [Example 94, 1-(4-{[6-oxo-3-{3-[4-(trifluoromethoxy)phenyl]-1,2,4-oxadiazol-5-yl}pyridazin-1(6H)-yl]methyl}pyridin-2-yl)piperidine-4-carbonitrile] gave an IC50 of 0.02 µM. To `CC(C)(c1ccc(-c2noc(-c3ccc(=O)n(Cc4ccnc(N5CCC(C#N)CC5)c4)n3)n2)cc1)C(F)(F)F` [Example 95, 1-(4-{[6-oxo-3-{3-[4-(1,1,1-trifluoro-2-methylpropan-2-yl)phenyl]-1,2,4-oxadiazol-5-yl}pyridazin-1(6H)-yl]methyl}pyridin-2-yl)piperidine-4-carbonitrile] belongs 0.04 µM; to `O=c1ccc(-c2nc(-c3ccc(OC(F)(F)F)cc3)no2)nn1Cc1ccnc(N2CCN(C3CC3)CC2)c1` [Example 96, 2-{[2-(4-Cyclopropylpiperazin-1-yl)pyridin-4-yl]methyl}-6-{3-[4-(trifluoromethoxy)phenyl]-1,2,4-oxadiazol-5-yl}pyridazin-3(2H)-one], 0.0015 µM. As to `CC(C)(c1ccc(-c2noc(-c3ccc(=O)n(Cc4ccnc(N5CCN(C6CC6)CC5)c4)n3)n2)cc1)C(F)(F)F` [Example 97, 2-{[2-(4-Cyclopropylpiperazin-1-yl)pyridin-4-yl]methyl}-6-{3-[4-(1,1,1-trifluoro-2-methylpropan-2-yl)phenyl]-1,2,4-oxadiazol-5-yl}pyridazin-3(2H)-one], the IC50 is 0.003 µM. For `CNc1ccc(Cn2nc(-c3nc(-c4ccc(OC(F)(F)F)cc4)no3)ccc2=O)cn1` [Example 100, 2-{[6-(Methylamino)pyridin-3-yl]methyl}-6-{3-[4-(trifluoromethoxy)phenyl]-1,2,4-oxadiazol-5-yl}pyridazin-3(2H)-one], it took 0.006 µM to reach half-maximal inhibition (IC50). `CNc1ccc(Cn2nc(-c3nc(-c4ccc(C(C)(C)C(F)(F)F)cc4)no3)ccc2=O)cn1` [Example 101, 2-{[6-(Methylamino)pyridin-3-yl]methyl}-6-{3-[4-(1,1,1-trifluoro-2-methylpropan-2-yl)phenyl]-1,2,4-oxadiazol-5-yl}pyridazin-3(2H)-one] registered an IC50 of 0.015 µM.
